Experimental data as given in US10753924B2, “Method for selecting patients responsive for cancer treatments” (Mitogro OÜ, priority 2016, dated 2020).
Marks after values point to notes of the source that are not given here.

Legend:
[1] = tested on: permeabilized MCF-7 cells; experiment: Citrate efflux from permeabilized MCF-7 cells (induction phase in Oroboros oxygraph, enzymatic citrate measurement); format: cell-based, human; conditions: 4.56 × 10^6 cells/ml
Description: Stock culture of MCF-7 cells was obtained from American Type Culture Collection (ATCC® Number: HTB-22™). The cells were grown as adherent monolayers in big T75 flasks (Greiner Bio-One GmbH, Germany) in low glucose (1.0 g/L) DMEM with stable L-glutamine (PAA Laboratories GmbH, Austria) that was supplemented with 1 mM Na-pyruvate (Gibco®, REF 11360-039), 10% heat-inactivated fetal bovine serum (FBS), […] human recombinant insulin (Gibco) and antibiotics: penicillin (100 U/ml), streptomycin (100 μg/ml) and gentamicin at a final concentration of 50 μg/ml. MCF-7 cells were grown and maintained at 37° C. in a humidified incubator containing 5% CO2 in air. The cells were sub-cultured at 2-3 day intervals.
MCF-7 cells were harvested from 5 T75 flasks (72 h after their seeding at a subculturing ratio of 1/5) by means of accutase (a cell detachment agent) treatment.
After detachment, the cell were washed twice with Mitomed-B solution (see Table 2), supplemented with lmg/ml bovine serum albumin (BSA) and 3-5 μM leupeptin (protease inhibitor) with centrifugation (on a Heraus “Biofuge primo R” refrigerated centrifuge equipped with a swing-out rotor, 150×g for 7 min at 4° C.). After washing, the pellet was resuspended in 2.5 ml of Mitomed-B (supplemented with lmg/ml BSA and 3-5 μM leupeptin) and the cells were stored on melting ice.
The experiments were carried out in an Oroboros oxygraph. Two parallel chambers on the same device were used. Reaction medium was Lahus-B as described below (Table 3).
Saponine concetration suitable for viability of MCF-7 cells was defined as 30 μg/ml. Malate, 2 mM, was present in all protocols in the reaction medium. BMS303141 was used to inhibit activity of ATP-citratelyase to stop it from metabolizing free citrate that accumulates to the reaction medium. 1,2,3-benzenetricarboxylic acid was used to stop citrate efflux from mitochondria. Saponine incubation time was 5 minutes. Cytochrome c and CAT were injected to the reaction medium right at the end of the experiment to assess the quality of mitochondrial inner and outer membranes. […]

[2] = tested on: permeabilized human breast cancer fibers; experiment: Citrate efflux from permeabilized fibers derived from human breast cancer clinical sample; format: cell-based
Description: In order to reach experiment targets, the sarcolemma and plasma membranes in skinned tumor fibers were completely permeabilized by saponin treatment keeping the mitochondrial membranes intact (both tumor and healthy tissue samples from the same patient were processed equally). Namely, skinned fibers were transferred into plastic vials with pre-cooled (on ice) Lahus-A (Table 8) containing 50 μg/ml saponin and incubated with mild stirring (at 40 rpm) for 30 min at 4° C. Permeabilized fibers were then washed in pre-cooled solution Lahus-B (Table 3) for 5 min under mild stirring; this washing procedure was performed three times to completely remove saponin and all soluble metabolites. The washed samples were placed into Lahus-B (Table 3) and kept in the same medium (at 4° C.) until use.
The experiments were carried out in an Oroboros oxygraph. Two parallel chambers on the same device were used. Reaction medium was Lahus-B (Table 3).
Saponine concetration suitable for viability of skinned breast cancer fibers was defined as 50 μg/ml. Malate, 2 mM, was present in all protocols in the reaction medium. BMS303141 was used to inhibit activity of ATP-citrate lyase to stop it from metabolizing free citrate that accumulates to the reaction medium. 1,2,3-benzenetricarboxylic acid was used to stop citrate efflux from mitochondria. Cytochorome c and CAT were injected to the reaction medium right at the end of the experiment to assess the quality of mitochondrial inner and outer membranes.
Duration of the induction phase: 1 hour.
Once the induction medium was ended, the reaction medium was transferred to 2.5 ml Eppendorf tube for centrifugation (14 000 rpm, 7 minutes). Fiber was removed from the reaction medium and weighted for calculations. The supernatant from the centrifugation was collected through syringe filter and stored on ice. Remaining debris was discarded as biological waste.
900 μl of each supernatant was used to enzymatically measure concentration of citrate as described before (Petrarulo et al, 1995).

O=C(O)c1cccc(C(=O)O)c1C(=O)O [1,2,3-BTC, 1,2,3-benzenetricarboxylic acid]
citrate efflux ([1]; protocol 2: glutamate 5 mM + malate 2 mM, 1,2,3-BTC 1 mM, 1 hour induction (without inhibitor: 1428)): 1098 ng citrate per 10^6 cells per
citrate efflux ([1]; protocol 4: pyruvate 0.05 mM + malate 2 mM, 1,2,3-BTC 1 mM, 1 hour induction (without inhibitor: 5564)): 1524 ng citrate per 10^6 cells per
citrate efflux ([1]; protocol 6: PalCar 40 μM + malate 2 mM, 1,2,3-BTC 1 mM, 1 hour induction (without inhibitor: 3059)): 1156 ng citrate per 10^6 cells per
effect on citrate accumulation in the reaction medium ([2]; permeabilized human breast cancer fibers, 1,2,3-BTC 1 mM): blocked the citrate accumulation in the reaction medium
citrate efflux ([2]; protocol 2: Glut/Mal, 1,2,3-BTC 1 mM, cancer fibers, footnote: result below detection limit (without inhibitor: 144.1, 172.1)): 41.7** ng citrate/mg × 60 min
citrate efflux ([2]; protocol 4: Pyr/Mal, 1,2,3-BTC 1 mM, cancer fibers, footnote: result below detection limit (without inhibitor: 194.6)): 17.6** ng citrate/mg × 60 min
citrate efflux ([2]; protocol 6: Palcar/Mal, 1,2,3-BTC 1 mM, cancer fibers (without inhibitor: 158.7)): 73.7 ng citrate/mg × 60 min
